Results on three substances are retold here after US11167039B2, “MET antibody drug conjugates” (priority 2016, dated 2021).

pEC50: −log10 of the molar value.

The subject of experiment [1] is HT-29 cells. As to conditions: Strickler, J. H., et al., read-out: EC50 in a HT-29 killing assay; cited from earlier work.
Experiment [2] has as its system MET expressing tumor cells. As to conditions: reported, Strickler et al. 2016; cited from earlier work.
For experiment [3], the system named is HT-29 cells. Put plainly: HT-29 cell-killing assay. It is filed as cell-based, human. As to conditions: HT-29 cells. How it is done: Therefore, the HT-29 cell line may be used to determine if test MET-ADCs can kill MET overexpressing tumor cells in vitro.
Briefly described, 2-3×10^3 cells/well in 100 μL of culture medium may be plated in 96 well plates and incubated overnight at 37° C., 5% CO2. The MET-ADCs, MET antibody(ies), control MMAE or control hIgG4 conjugated to MMAE with cysteine conjugation antibody(ies) may be diluted 1:3 in serum-free culture medium starting from 100 nM (final) in 50 μL as 3× concentrations to the HT-29 cells. At the end of an additional 5-6 days of cell growth at 37° C. in a humidified incubator with 5% CO2, the plates may be equilibrated to room temperature for 30 minutes and 100 μL/well of CellTiter-Glo® reagent (Promega Corp., Fitchburg, Wis.) may then be added to assess cell viability. Cell viability may be determined by measuring luminescence.
Various tumor cell lines and normal human cells may be tested for MET-ADC induced cell killing activity essentially as described above in Example 10 as assessed for MET receptor density. MET cell surface density was determined by indirect immunofluorescence staining of cell surface antigens on cultured cells using QIFIKIT (Dako). […] Following a forty-five minute incubation, cells may be incubated for 1 hour on ice with FITC conjugated antibody diluted 1:50 in FACS buffer. Then cells may be washed and receptor numbers may be determined by indirect immunofluorescence staining of the QIFIKIT beads using a Becton Dickinson LSRII flow cytometer.

Experiment [4] deals with HT-29 colon cancer tumor xenografts. Kind of experiment: HT-29 mouse xenograft model. It counts as in vivo. The settings on record: separate experiment(s), data not shown. As for the experimental part:
Female athymic nude mice age 6- to 7-weeks old are available commercially, including from Harlan Laboratories (Indianapolis, Ind.). The mice are allowed to acclimate for one week and fed ad libitum on a normal low fat (4.5%) diet, which may be continued for the duration of the study. Tumor cells may be purchased from ATCC and may be cultured in cell culture media such as RPMI 1640 (Life Technologies) with L-glutamine, 25 mM HEPES supplemented with 10% FBS and 1 mM Na Pyruvate. Cells may be detached, washed with serum free medium and then resuspended at a final concentration of 50×10^6 cells/mL in serum free RPMI 1640. Tumor cells, approximately 5×10^6, may be injected subcutaneously in the rear flank of subject mice in a 1:1 mixture of serum free growth medium and Matrigel (Becton Dickinson, Bedford, Mass.). Tumor and body weight measurements may be performed twice weekly. Prior to treatment, mice can be randomized based on tumor size using a randomization algorithm. Treatments may be started when the average tumor volume reaches 100 mm^3. […]
MET-ADCs and control hIgG4-MMAE may be prepared in Phosphate Buffered Saline (PBS) prior to dose. Tumor size may be determined by caliper measurements. […] Tumor volume data can be transformed to a log scale to equalize variance across time and treatment groups. Log volume data can be analyzed with two-way repeated measures ANOVA by time and treatment using SAS PROC MIXED software (SAS Institutes Inc, Cary, N.C.). Treatment groups are compared with the specified control group at each time point.

In experiment [5] the test system is pan-AKT phosphorylation (pAKT) in Caki-1 cells. Kind of experiment: Phosphor-AKT bioassay for MET agonist activity in Caki-1 cells. It counts as cell-based. The settings on record: 5 μg/mL. How it is done: Because it has been reported that MET agonistic antibodies increased hepatocyte proliferation and toxicity, a phosphor-AKT assay may be used to test MET-ADCs for MET agonist activity. Briefly stated, Caki-1 cells may be starved overnight in serum-free medium with 0.1% BSA and then treated with ADCs or naked MET antibodies at 5 μg/mL for the desired durations. Cell lysates may be analyzed for phosphorylation of pan-AKT by MSD ELISA, for example.

As for ABBV-399, the pEC50 with HT-29 cells [1] is 8.05. Besides, the “approximate threshold of MET cell surface molecules for sensitivity” value in experiment [2] is listed as > 100,000.
For Emibetuzumab, the “cell killing activity in HT-29 cells” value with HT-29 cells [3] was “no significant cell killing activity”. Further, in experiment [4], the “inhibition of HT-29 tumor growth” value is listed as “did not inhibit HT-29 tumor growth”. Moreover, in experiment [5], the “MET agonist activity (induction of pan-AKT phosphorylation)” value is “low to no agonist activity”.
Regarding “MET-ADC #6: emibetuzumab conjugated with maleimidocaproyl-valine-citrulline-p-aminobenzoyloxycarbonyl-monomethyl auristatin E (Mal-C-vc-PABC-MMAE)”, in the experiment with HT-29 cells [3], the “cell killing activity in HT-29 cells” value is recorded as “less active than MET-ADC #1”. Further, the “MET agonist activity (induction of pan-AKT phosphorylation)” value in experiment [5] is given as “significant increased agonist activity”.

As a reminder, the pEC50 is −log10 of the EC50, conventionally taken in molar units.
